This is an account of results in PubChem BioAssay (NCI).

Among the test systems are MDA-MB-435; CAKI-1 renal; OVCAR-3 ovarian; HL-60(TB) leukemia; T-47D breast; HOP-62 NSCLC; NCI-H226 lung; M14 melanoma; NCI-H23 lung; EKVX NSCLC; HCT-116 colon; SNB-75 CNS; 786-0 renal; SF-268 CNS; OVCAR-5 ovarian; HCC-2998 colon; MDA-N; SNB-19 CNS; RXF 393 renal; SF-539 CNS.
What all share (assay): NCI anticancer screen, dose series, 48 h

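Tested at 5 concentrations; 48 h exposure; 96-well plates; endpoints linearly interpolated, else capped at highest concentration. The concentration for full growth arrest is given as TGI.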

On to `O=S(=O)(c1ccccc1)[C@@H]1[C@H]2C=C[C@](CS)(O2)[C@H]1S(=O)(=O)c1ccccc1`, for which the TGI with MDA-MB-435 is greater than 100 µM; in the assay on CAKI-1 renal, 92.3 µM; with OVCAR-3 ovarian it was 63.5 µM; with HL-60(TB) leukemia, greater than 100 µM; in the assay on T-47D breast, greater than 100 µM; in the assay on HOP-62 NSCLC it was greater than 100 µM. The TGI in the assay on NCI-H226 lung is greater than 100 µM; in the assay on M14 melanoma it was greater than 100 µM; in the assay on NCI-H23 lung, greater than 100 µM; in the assay with EKVX NSCLC it was greater than 100 µM; in the assay with HCT-116 colon, 26 µM; with SNB-75 CNS, greater than 100 µM. The TGI in the assay on 786-0 renal was 87.2 µM; in the assay with SF-268 CNS it was greater than 100 µM; in the assay on OVCAR-5 ovarian, greater than 100 µM; in the assay with HCC-2998 colon, greater than 100 µM; in the assay with MDA-N, greater than 100 µM; with SNB-19 CNS, greater than 100 µM. In the assay on RXF 393 renal, this molecule came in with a TGI greater than 100 µM.
As for `Clc1ccc(/C=C/c2nc(-c3ccc(Cl)cc3)cn3c2nc2ccccc23)cc1`, the TGI in the assay with MDA-MB-435, in the assay with OVCAR-3 ovarian, in the assay with HL-60(TB) leukemia, with T-47D breast, in the assay with SF-539 CNS and in the assay with HOP-62 NSCLC was greater than 100 µM each time. Also, the TGI in the assay with NCI-H226 lung, with M14 melanoma, with NCI-H23 lung, with EKVX NSCLC, in the assay on HCT-116 colon and in the assay with 786-0 renal was greater than 100 µM each time. Also, the TGI in the assay on SF-268 CNS, in the assay with OVCAR-5 ovarian, in the assay with HCC-2998 colon, in the assay with MDA-N, in the assay on SNB-19 CNS and with RXF 393 renal was greater than 100 µM in each case.
For `C=CCN1C(=O)/C(=C/c2ccccc2)N=C1SC1OC(COC(C)=O)C(OC(C)=O)C(OC(C)=O)C1OC(C)=O` (stereo unspecified), the TGI in the assay on MDA-MB-435 was greater than 100 µM; in the assay on CAKI-1 renal, 53.8 µM; in the assay with OVCAR-3 ovarian it was 45.8 µM; in the assay on HL-60(TB) leukemia, 60.6 µM; in the assay with T-47D breast, greater than 100 µM; in the assay with HOP-62 NSCLC, greater than 100 µM. In addition, the TGI in the assay on M14 melanoma was greater than 100 µM; in the assay on NCI-H23 lung, 87.6 µM; in the assay on EKVX NSCLC it was 63.7 µM; with HCT-116 colon, 83 µM; with SNB-75 CNS, 67.8 µM; with 786-0 renal, greater than 100 µM. In addition, the TGI with SF-268 CNS is 53.4 µM; in the assay with OVCAR-5 ovarian, greater than 100 µM; with HCC-2998 colon, greater than 100 µM; in the assay with MDA-N, greater than 100 µM; with SNB-19 CNS, greater than 100 µM; in the assay on RXF 393 renal, 36.6 µM.
In the case of `COc1ccc(/C=N/NS(=O)(=O)c2ccc(/C=C3\NC(=O)N(C)C3=O)cc2)cc1`, the TGI with MDA-MB-435, in the assay with CAKI-1 renal, in the assay on OVCAR-3 ovarian, with HL-60(TB) leukemia, in the assay with T-47D breast and in the assay with HOP-62 NSCLC was greater than 100 µM throughout. Moreover, the TGI in the assay with NCI-H226 lung, with M14 melanoma, in the assay with NCI-H23 lung, in the assay with EKVX NSCLC, with HCT-116 colon and in the assay on SNB-75 CNS was greater than 100 µM throughout. Further, the TGI in the assay on 786-0 renal, with SF-268 CNS, with OVCAR-5 ovarian, in the assay with HCC-2998 colon, in the assay with MDA-N and with SNB-19 CNS was greater than 100 µM in each case. The TGI with RXF 393 renal is greater than 100 µM.
As to `CCOC(=O)CCC(NC(=O)c1ccc(OCc2ccc3nc(OC)c(OC)nc3c2)cc1)C(=O)OCC` (stereo unspecified), the TGI in the assay on MDA-MB-435 is 91.1 µM; with CAKI-1 renal it was greater than 100 µM; in the assay with OVCAR-3 ovarian, 49.9 µM; in the assay with HL-60(TB) leukemia, 73.5 µM; in the assay with T-47D breast it was greater than 100 µM; in the assay with SF-539 CNS, greater than 100 µM. For the same molecule, the TGI was greater than 100 µM in the assay on HOP-62 NSCLC; greater than 100 µM in the assay on NCI-H226 lung; 96.8 µM in the assay on M14 melanoma; greater than 100 µM in the assay on NCI-H23 lung; greater than 100 µM with HCT-116 colon; greater than 100 µM in the assay with SNB-75 CNS. Further, the TGI in the assay on 786-0 renal, in the assay with SF-268 CNS, with OVCAR-5 ovarian, in the assay with HCC-2998 colon, in the assay with MDA-N and with SNB-19 CNS was greater than 100 µM in each case. In the assay on RXF 393 renal, the TGI was determined as 90.7 µM.
For `COC(=O)C(=O)c1cc2ccccc2n1S(=O)(=O)c1ccccc1`, the TGI with MDA-MB-435, in the assay on CAKI-1 renal, in the assay with OVCAR-3 ovarian, in the assay on HL-60(TB) leukemia, with T-47D breast and in the assay with SF-539 CNS was greater than 100 µM each time. Further, the TGI with HOP-62 NSCLC, in the assay on M14 melanoma, with NCI-H23 lung, in the assay with EKVX NSCLC, with HCT-116 colon and in the assay with SNB-75 CNS was greater than 100 µM in each case. The TGI with 786-0 renal, in the assay with SF-268 CNS, in the assay with OVCAR-5 ovarian, in the assay with HCC-2998 colon, in the assay on MDA-N and in the assay with SNB-19 CNS was greater than 100 µM throughout. The same molecule gave a TGI in the assay with RXF 393 renal greater than 100 µM.
With `O=C1NC(=O)/C(=C/c2ccc(S(=O)(=O)N/N=C/c3ccccc3)cc2)N1`, the TGI in the assay on MDA-MB-435, in the assay on CAKI-1 renal, in the assay with OVCAR-3 ovarian, in the assay on HL-60(TB) leukemia, with T-47D breast and with HOP-62 NSCLC was greater than 100 µM in each case. The TGI in the assay on NCI-H226 lung, in the assay on M14 melanoma, in the assay on NCI-H23 lung, with EKVX NSCLC, in the assay with HCT-116 colon and in the assay with SNB-75 CNS was greater than 100 µM throughout. Further, the TGI in the assay with 786-0 renal, with SF-268 CNS, in the assay on OVCAR-5 ovarian, in the assay with HCC-2998 colon, with MDA-N and in the assay on SNB-19 CNS was greater than 100 µM throughout. Also, in the assay on RXF 393 renal, the TGI was greater than 100 µM.
